Source: US12428416B2 (California Institute of Technology, priority 2018, dated 2025)

Experiments:
[1] = test system: drug-sensitive cell lines of Table 4; experiment: Cell line growth retardation assay, average over sensitive cohort; assay type: cell-based, Human; conditions: Homo sapiens, 144 h; geometric mean of IC50s over sensitive cohort (Table 4); 6 days growth; read-out: AvgSens IC50
Outline: (§1)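 Cancer cell lines treated 6 days with compound at 10 μM down to 0.0032 μM (5-fold steps) vs vehicle; cells counted by imaging on day 0 and day 6. Growth inhibition as ratio of population doublings with vs without compound; per-line IC50 from curve fit, cohort value as geometric mean.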

[2] = test system: drug-resistant cell lines of Table 4; experiment: Cell line growth retardation assay, average over resistant cohort; assay type: cell-based, Human; conditions: Homo sapiens, 144 h; geometric mean of IC50s over resistant cohort (Table 4); 6 days growth; read-out: AvgRes IC50
Outline: as §1

[3] = test system: phosphorylated RSK (pRSK) in M275 cells; experiment: Western Blot for Total and pRSK; assay type: cell-based, human; conditions: treatment for 4.5 hours and 24 hours, 200 nM
Method: Western Blot for Total and pRSK
For Western blot assays (see FIG. 14), protein lysates were obtained from either the M275 or M202 human melanoma cancer cell lines. For assay, cells were plated on 10 cm dishes and treated 24 hours later with either 200 nM of test compound in DMSO or DMSO control for 4.5 or 24 hours. After the treatment period, cells were washed twice in ice-cold PBS and lysed for 15 minutes at 4° C. using a mild lysis buffer (Cell Signaling Technology) containing a mixture of protease inhibitors (Calbiochem) and 1 mmol/L phenlymethylsulfonlyfluoride. Insoluble material was removed by centrifugation at 10,000×g for 10 minutes. Protein concentration of each sample was quantified by BCA (Pierce), resolved by SDS-PAGE, and transferred to nitrocellulose membranes (iBlot, Invitrogen Life Technology). Total (32D7, Cell Signaling Technologies) and phosphorylated ([…]; D1E9, Cell Signaling Technology) RSK protein were detected using the indicated antibody clones. All blots were repeated in duplicate and relative levels of individual proteins compared to a loading control (α-tubulin) (11H10; Cell Signaling Technology) were quantitated using the ECL Plus chemifluorescent reagent (Amersham Biosciences) and the ChemiDoc™ Touch Imaging System (BioRad).

ERK2 = ERK2 (Homo sapiens, UniProt P28482); experiment: ERK1 and 2 Enzymatic Inhibition Assay (ERK2); assay type: biochemical; conditions: 10 assay concentrations 2×10^−6 M to 6×10^−11 M, 1% DMSO
Sequence of ERK2 (P28482 whole entry): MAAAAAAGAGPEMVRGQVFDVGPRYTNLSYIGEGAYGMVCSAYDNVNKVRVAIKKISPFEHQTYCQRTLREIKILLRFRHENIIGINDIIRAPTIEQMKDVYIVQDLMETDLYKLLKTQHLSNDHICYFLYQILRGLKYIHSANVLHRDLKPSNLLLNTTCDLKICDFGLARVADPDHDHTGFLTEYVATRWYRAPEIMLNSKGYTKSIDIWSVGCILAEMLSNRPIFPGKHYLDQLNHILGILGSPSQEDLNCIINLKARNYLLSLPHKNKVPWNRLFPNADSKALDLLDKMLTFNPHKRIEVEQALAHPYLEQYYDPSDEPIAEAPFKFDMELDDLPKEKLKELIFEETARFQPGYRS
Outline: (§2)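 Ki determination: compounds serially diluted semi-logarithmically in DMSO and tested at 10 final concentrations from 2×10^−6 M to 6×10^−11 M with 1% final DMSO.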

[4] = Mouse Maximum Tolerated Dose Studies; assay type: in vivo; conditions: mice, oral gavage (PO)
Method: Mouse Maximum Tolerated Dose Studies
For maximum tolerated dose (MTD) determination studies, non-tumor bearing CD-1 athymic nude mice were randomized into […] treatment groups (5 mice per group) and treated with either 400, 300, 200, 100, 50 or 25 mg/kg of compound by daily PO, or 200, 100, 50, 25, or 12.5 mg/kg of compound twice daily PO. Mice were weighed daily and % body weight loss was calculated relative to individual mouse body weights at the start of treatment. […] MTD was determined as the highest dose at which a mean body weight loss of <10% over 14 days of dosing was observed.

ERK1 = ERK1 (Homo sapiens, UniProt P27361); experiment: ERK1 and 2 Enzymatic Inhibition Assay (ERK1); assay type: biochemical; conditions: 10 assay concentrations 2×10^−6 M to 6×10^−11 M, 1% DMSO
Sequence of ERK1 (P27361 whole entry): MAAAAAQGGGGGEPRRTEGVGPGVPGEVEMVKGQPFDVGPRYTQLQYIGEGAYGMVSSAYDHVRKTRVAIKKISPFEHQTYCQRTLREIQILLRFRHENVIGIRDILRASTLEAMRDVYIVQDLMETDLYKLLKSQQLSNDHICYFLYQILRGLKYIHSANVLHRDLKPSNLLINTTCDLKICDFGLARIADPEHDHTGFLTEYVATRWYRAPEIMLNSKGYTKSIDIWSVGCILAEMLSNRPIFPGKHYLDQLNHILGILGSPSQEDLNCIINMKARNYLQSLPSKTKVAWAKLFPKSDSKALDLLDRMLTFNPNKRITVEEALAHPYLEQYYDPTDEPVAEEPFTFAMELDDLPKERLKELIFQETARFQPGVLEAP
Outline: as §2

[5] = Compound metabolic stability in hepatocytes; assay type: in vitro ADME; conditions: hepatocytes from mice and rats (species not given); class symbols without key
Method: The metabolic stability of compounds was determined in hepatocytes from mice and rats. Compounds were diluted to 5 μM in Williams' Medium E from 10 mM stock solutions. 10 μL of each compound was aliquoted into a well of a 96-well plate and reactions were started by aliquoting 40 μL of a 625,000 cells/mL suspension into each well. The plate was incubated at 37° C. with 5% CO2. At each corresponding time point, the reaction was stopped by quenching with ACN containing internal standards (IS) at a 1:3. Plates were shaken at 500 rpm for 10 min, and then centrifuged at 3,220×g for 20 minutes. Supernatants were transferred to another 96-well plate containing a dilution solution. Supernatants were analyzed by LC/MS/MS.
Compound half-life was estimated using the following equation: % Remaining Compound=Peak Area Ratios of Tested Compound vs. Internal Standard at End Point/Peak Area Ratios of Tested Compound vs. Internal Standard at Start Point Mouse Xenograft Studies

SMILES	IC50 [1] [nM]	IC50 [2] [nM]	level of phosphorylated RSK (pRSK) [3]	Kd (ERK2) [nM]	maximum tolerated QD dose ([4]; daily (QD)) [mg/kg]	maximum tolerated BID dose ([4]; twice daily (BID)) [mg/kg]	Kd (ERK1) [nM]	half-life at 1 µM [5] [min]
CC(NC(=O)c1ncc(-c2c[nH]c3ncc(N4CCOCC4)cc23)cn1)c1ccccc1 (stereo in doubt) [Compound 6, (R)-5-(5-morpholino-1H-pyrrolo[2,3-b]pyridin-3-yl)-N-(1-phenylethyl)pyrimidine-2-carboxamide]	≤ 250	> 500	decrease	≤ 10	200	100	≤ 10	> 25
c1ccc([C@@H]2CN=C(c3ncc(-c4c[nH]c5ncc(N6CCOCC6)cc45)cn3)O2)cc1 [Compound 29, (R)-4-(3-(2-(5-phenyl-4,5-dihydrooxazol-2-yl)pyrimidin-5-yl)-1H-pyrrolo[2,3-b]pyridin-5-yl)morpholine]	> 500	> 500	–	11 to 100	–	–	11 to 100	> 25
Cc1cccc(C(C)NC(=O)c2ncc(-c3c[nH]c4ncc(N5CCOCC5)cc34)cn2)c1 (stereo in doubt) [Compound 50, (R)-5-(5-morpholino-1H-pyrrolo[2,3-b]pyridin-3-yl)-N-(1-(m-tolyl)ethyl)pyrimidine-2-carboxamide]	≤ 250	> 500	–	≤ 10	–	–	≤ 10	> 25
